This is an account of results in patent US12209087B2, “AKT1 modulators” (Alterome Therapeutics, Inc., priority 2022, dated 2025).

Each structure is given as a SMILES string. Bounds are passed on as bounds.

The target of the first test is T1, full length AKT E17K (Homo sapiens, UniProt P31749, E17K).
T1 construct: host or cells: HEK-293 (ATCC CRL-1573)
T1 sequence (P31749 whole entry E17K): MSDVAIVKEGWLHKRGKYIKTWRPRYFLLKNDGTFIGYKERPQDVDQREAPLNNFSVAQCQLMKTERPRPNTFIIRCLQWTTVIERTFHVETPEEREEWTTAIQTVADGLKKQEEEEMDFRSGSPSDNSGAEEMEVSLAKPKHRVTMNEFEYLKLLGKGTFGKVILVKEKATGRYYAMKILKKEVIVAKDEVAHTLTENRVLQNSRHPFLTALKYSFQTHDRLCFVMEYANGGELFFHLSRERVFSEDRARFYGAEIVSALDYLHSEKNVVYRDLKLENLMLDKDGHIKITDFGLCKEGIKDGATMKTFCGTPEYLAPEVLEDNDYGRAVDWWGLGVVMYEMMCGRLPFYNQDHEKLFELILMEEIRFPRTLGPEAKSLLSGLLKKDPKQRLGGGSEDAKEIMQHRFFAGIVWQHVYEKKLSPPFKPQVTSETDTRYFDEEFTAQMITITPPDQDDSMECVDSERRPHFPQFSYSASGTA
In words: NanoBRET Target Engagement (TE) Assay. It is filed as cell-based. The conditions noted are these: competitive displacement of tracer in cells, read-out: AKT1 E17K IC50. The procedure, abridged:
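Compound and tracer incubated 2 h before luminescence at donor 450 nm and acceptor 600 nm, with extracellular signal inhibited. EC50 by sigmoidal variable-slope regression.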
In the case of `N#Cc1nccc(NC2CCN(Cc3ccc(-n4c(-c5cccnc5N)nc5ccc(-c6ccc(C(F)(F)F)nc6)nc54)cc3)CC2)n1` [Example 646, 4-((1-(4-(2-(2-Aminopyridin-3-yl)-5-(6-(trifluoromethyl)pyridin-3-yl)-3H-imidazo[4,5-b]pyridin-3-yl)benzyl)piperidin-4-yl)amino)pyrimidine-2-carbonitrile], the IC50 was < 0.015 µM.

`N#Cc1nccc(NC2CCN(Cc3ccc(-n4c(-c5cncnc5)nc5ccc(-c6ccc(F)cn6)nc54)cc3)CC2)n1` [Example 601, 4-((1-(4-(5-(5-Fluoropyridin-2-yl)-2-(pyrimidin-5-yl)-3H-imidazo[4,5-b]pyridin-3-yl)benzyl)piperidin-4-yl)amino)pyrimidine-2-carbonitrile]: the IC50 lay within 0.6 to 10 µM.

Take `CC(=O)N(C)c1cccc(-c2ccc3nc(-c4cccnc4N)n(-c4ccc(CN5CCC(Nc6ccnc(C#N)n6)CC5)cc4)c3n2)c1` [Example 514, N-(3-(2-(2-Aminopyridin-3-yl)-3-(4-((4-((2-cyanopyrimidin-4-yl)amino)piperidin-1-yl)methyl)phenyl)-3H-imidazo[4,5-b]pyridin-5-yl)phenyl)-N-methylacetamide]: the IC50 is < 0.015 µM.

As for `N#Cc1cc(N2C[C@@H]3C[C@H]2CN3Cc2ccc(-n3c(-c4cccnc4N)nc4ccc(-c5ccccc5)nc43)cc2)ncn1` [Example 376, 6-((1S,4S)-5-(4-(2-(2-Aminopyridin-3-yl)-5-phenyl-3H-imidazo[4,5-b]pyridin-3-yl)benzyl)-2,5-diazabicyclo[2.2.1]heptan-2-yl)pyrimidine-4-carbonitrile], the half-maximal inhibitory concentration (IC50) fell in the range of 0.06 to 0.6 µM.

Turning to `[2H]C([2H])(c1ccc(-n2c(-c3cccnc3N)nc3cccnc32)cc1)N1CCC(Nc2ccnc(C#N)n2)CC1` [Example 385, 4-((1-((4-(2-(2-Aminopyridin-3-yl)-3H-imidazo[4,5-b]pyridin-3-yl)phenyl)methyl-d2)piperidin-4-yl)amino)pyrimidine-2-carbonitrile], the IC50 lay within 0.015 to 0.06 µM.

As for `N#Cc1nccc(NC2CCN(Cc3ccc(-n4c(-c5cccnc5N)nc5ccc(-c6ccc(F)cn6)nc54)cc3)CC2)n1` [Example 456, 4-((1-(4-(2-(2-Aminopyridin-3-yl)-5-(5-fluoropyridin-2-yl)-3H-imidazo[4,5-b]pyridin-3-yl)benzyl)piperidin-4-yl)amino)pyrimidine-2-carbonitrile], the concentration for half-maximal inhibition (IC50) is < 0.015 µM.

With `N#Cc1cc(N2CCN(Cc3ccc(-n4c(-c5cccnc5N)nc5ccc(-c6ccc(Cl)cc6)nc54)cc3)CC2)ncn1` [Example 344, 6-(4-(4-(2-(2-Aminopyridin-3-yl)-5-(4-chlorophenyl)-3H-imidazo[4,5-b]pyridin-3-yl)benzyl)piperazin-1-yl)pyrimidine-4-carbonitrile], the IC50 lay in the range of 0.06 to 0.6 µM.

As to `N#Cc1nccc(NC2CN(Cc3ccc(-n4c(-c5cccnc5N)nc5ccc(-c6ccc(F)cc6)nc54)cc3)C2)n1` [Example 443, 4-((1-(4-(2-(2-Aminopyridin-3-yl)-5-(4-fluorophenyl)-3H-imidazo[4,5-b]pyridin-3-yl)benzyl)azetidin-3-yl)amino)pyrimidine-2-carbonitrile], the IC50 is < 0.015 µM.

Consider `[2H]C([2H])(F)n1cc(-c2ccc3nc(-c4cccnc4N)n(-c4ccc(CN5CCC(Nc6ccnc(C#N)n6)CC5)cc4)c3n2)ccc1=O` [Example 624, 4-((1-(4-(2-(2-Aminopyridin-3-yl)-5-(1-(fluoromethyl-d2)-6-oxo-1,6-dihydropyridin-3-yl)-3H-imidazo[4,5-b]pyridin-3-yl)benzyl)piperidin-4-yl)amino)pyrimidine-2-carbonitrile], for which the IC50 was in the range of 0.015 to 0.06 µM.

Take `[2H]C([2H])([2H])N(c1ccnc(C#N)n1)C1CCN(C([2H])([2H])c2ccc(-n3c(-c4cccnc4N)nc4cccnc43)cc2)CC1` [Example 502, 4-((1-((4-(2-(2-Aminopyridin-3-yl)-3H-imidazo[4,5-b]pyridin-3-yl)phenyl)methyl-d2)piperidin-4-yl)(methyl-d3)amino)pyrimidine-2-carbonitrile]: the IC50 lay within 0.015 to 0.06 µM.

Still in this test, the particulars now being: competitive tracer displacement in living cells, read-out: AKT1 E17K IC50.
Consider `N#Cc1cncc(N2CCN(Cc3ccc(-n4c(-c5cccnc5N)nc5ccc(-c6ccccc6)nc54)cc3)CC2)c1` [Example 65, 5-(4-(4-(2-(2-Aminopyridin-3-yl)-5-phenyl-3H-imidazo[4,5-b]pyridin-3-yl)benzyl)piperazin-1-yl)nicotinonitrile], for which the IC50 was in the range of 0.06 to 0.6 µM.

With `N#Cc1cccc(OC2CCN(Cc3ccc(-n4c(-c5cccnc5N)nc5cccnc54)cc3)CC2)n1` [Example 4, 6-((1-(4-(2-(2-Aminopyridin-3-yl)-3H-imidazo[4,5-b]pyridin-3-yl)benzyl)piperidin-4-yl)oxy)picolinonitrile], the IC50 was 0.6 to 10 µM.

Consider `N#Cc1cncc(NC2CCN(Cc3ccc(-n4c(-c5cccnc5N)nc5ccc(-c6ccccc6)nc54)cc3)CC2)c1` [Example 93, 5-((1-(4-(2-(2-Aminopyridin-3-yl)-5-phenyl-3H-imidazo[4,5-b]pyridin-3-yl)benzyl)piperidin-4-yl)amino)nicotinonitrile], for which the IC50 lay in the range of 0.06 to 0.6 µM.

For the molecule `N#Cc1ccnc(N2CCN(Cc3ccc(-n4c(-c5cccnc5N)nc5ccc(-c6ccccc6)nc54)cc3)CC23CC3)n1` [Example 199, 2-(7-(4-(2-(2-Aminopyridin-3-yl)-5-phenyl-3H-imidazo[4,5-b]pyridin-3-yl)benzyl)-4,7-diazaspiro[2.5]octan-4-yl)pyrimidine-4-carbonitrile], the IC50 was in the range of 0.06 to 0.6 µM.

As to `N#Cc1nccc(N2CCN(Cc3ccc(-n4c(-c5cccnc5N)nc5ccc(-c6ccc[nH]c6=O)nc54)cc3)CC2)n1` [Example 259, 4-(4-(4-(2-(2-Aminopyridin-3-yl)-5-(2-oxo-1,2-dihydropyridin-3-yl)-3H-imidazo[4,5-b]pyridin-3-yl)benzyl)piperazin-1-yl)pyrimidine-2-carbonitrile], the IC50 was < 0.015 µM.

As to `N#Cc1cc(C(=O)NCc2ccc(-n3c(-c4cccnc4N)nc4cccnc43)cc2)ccn1` [Example 122, N-(4-(2-(2-Aminopyridin-3-yl)-3H-imidazo[4,5-b]pyridin-3-yl)benzyl)-2-cyanoisonicotinamide], the IC50 fell in the range of 0.6 to 10 µM.

Take `N#Cc1ccnc(C(=O)NCc2ccc(-n3c(-c4cccnc4N)nc4cccnc43)cc2)c1` [Example 147, N-(4-(2-(2-Aminopyridin-3-yl)-3H-imidazo[4,5-b]pyridin-3-yl)benzyl)-4-cyanopicolinamide]: the IC50 fell in the range of 0.6 to 10 µM.

In the case of `N#Cc1cc(N2CC3CCC(C2)N3Cc2ccc(-n3c(-c4cccnc4N)nc4ccc(-c5ccccc5)nc43)cc2)ncn1` [Example 213, 6-(8-(4-(2-(2-Aminopyridin-3-yl)-5-phenyl-3H-imidazo[4,5-b]pyridin-3-yl)benzyl)-3,8-diazabicyclo[3.2.1]octan-3-yl)pyrimidine-4-carbonitrile], the IC50 was in the range of 0.015 to 0.06 µM.

For the molecule `N#Cc1ccnc(C(=O)NC2CCN(Cc3ccc(-n4c(-c5cccnc5N)nc5cccnc54)cc3)CC2)c1` [Example 31, N-(1-(4-(2-(2-Aminopyridin-3-yl)-3H-imidazo[4,5-b]pyridin-3-yl)benzyl)piperidin-4-yl)-4-cyanopicolinamide], the IC50 is 0.6 to 10 µM.

On to `N#Cc1cncc(NCc2ccc(-n3c(-c4cccnc4N)nc4cccnc43)cc2)n1` [Example 133, 6-((4-(2-(2-Aminopyridin-3-yl)-3H-imidazo[4,5-b]pyridin-3-yl)benzyl)amino)pyrazine-2-carbonitrile], for which the IC50 is 0.6 to 10 µM.

What is called IC50 is the point on the concentration scale where inhibition reaches its midpoint.
